Data taken from PubChem BioAssay AID248 (DTP/NCI, 2004).
Values joined by “and” are separate entries in the source; they are usually repeats but may differ in a detail not shown here. Equal entries are not always repeated. Toxic doses and inconclusive results are not listed. Rule as the data show it: active = T/C of 150% or more; inactive = T/C below 125%.

Tested on: L1210 leukemia ip in BDF1 mice, survival T/C
Assay: NCI In Vivo Anticancer Drug Screen. Data for tumor model L1210 Leukemia (intraperitoneal) in B6D2F1 (BDF1) mice
Details: endpoint: mean survival time, higher = longer survival
Method in brief: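 Ratio derived from survival: compound-dosed mice over vehicle-dosed mice, all bearing a transplantable tumor.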

[1] = dose: 50.0 mg/kg/injection, schedule: Q01DX009 (ip), vehicle: Klucel (hydroxypropylcellulose) (HPC)
[2] = dose: 100.0 mg/kg/injection, schedule: Q01DX009 (ip), vehicle: saline
[3] = dose: 100.0 mg/kg/injection, schedule: Q04DX003 (ip), vehicle: Klucel (hydroxypropylcellulose) (HPC)
[4] = dose: 100.0 mg/kg/injection, schedule: Q01DX009 (ip), vehicle: Klucel (hydroxypropylcellulose) (HPC)
[5] = dose: 200.0 mg/kg/injection, schedule: Q01DX009 (ip), vehicle: Klucel (hydroxypropylcellulose) (HPC)
[6] = dose: 200.0 mg/kg/injection, schedule: Q04DX003 (ip), vehicle: Klucel (hydroxypropylcellulose) (HPC)
[7] = dose: 400.0 mg/kg/injection, schedule: Q01DX009 (ip), vehicle: Klucel (hydroxypropylcellulose) (HPC)
[8] = dose: 400.0 mg/kg/injection, schedule: Q04DX003 (ip), vehicle: Klucel (hydroxypropylcellulose) (HPC)
[9] = dose: 100.0 mg/kg/injection, schedule: Q01DX001 (ip), vehicle: saline
[10] = dose: 200.0 mg/kg/injection, schedule: Q01DX001 (ip), vehicle: saline
[11] = dose: 400.0 mg/kg/injection, schedule: Q01DX001 (ip), vehicle: saline

Measured: T/C

CN(CCCl)Cc1ccccc1
inactive: dose: 8.2 mg/kg/injection, schedule: Q01DX Z (ip), vehicle: methylcellulose (MC) 107 % of control | dose: 18.8 mg/kg/injection, schedule: Q01DX Z (ip), vehicle: methylcellulose (MC) 109 % of control and 112 % of control | dose: 25.0 mg/kg/injection, schedule: Q01DX009 (ip), vehicle: Klucel (hydroxypropylcellulose) (HPC) 101 % of control | dose: 25.0 mg/kg/injection, schedule: Q01DX009 (ip), vehicle: saline 107 % of control | dose: 28.0 mg/kg/injection, schedule: Q01DX Z (ip), vehicle: methylcellulose (MC) 114 % of control and 121 % of control | [1] 112 % of control | dose: 50.0 mg/kg/injection, schedule: Q01DX009 (ip), vehicle: saline 103 % of control | dose: 50.0 mg/kg/injection, schedule: Q04DX003 (ip), vehicle: Klucel (hydroxypropylcellulose) (HPC) 101 % of control | dose: 63.0 mg/kg/injection, schedule: Q01DX Z (ip), vehicle: methylcellulose (MC) 87 % of control | [2] 97 % of control | [3] 108 % of control

ClC1=C(Cl)C2(Cl)C(c3ccccc3)=CC1(Cl)C2(Cl)Cl (stereo unspecified)
inactive: dose: 100.0 mg/kg/injection, schedule: Q01DX009 (ip), vehicle: gum acacia 93 % of control | dose: 100.0 mg/kg/injection, schedule: Q04DX003 (ip), vehicle: gum acacia 114 % of control | dose: 200.0 mg/kg/injection, schedule: Q01DX009 (ip), vehicle: gum acacia 90 % of control | dose: 200.0 mg/kg/injection, schedule: Q04DX003 (ip), vehicle: gum acacia 99 % of control | dose: 400.0 mg/kg/injection, schedule: Q01DX009 (ip), vehicle: gum acacia 100 % of control | dose: 400.0 mg/kg/injection, schedule: Q04DX003 (ip), vehicle: gum acacia 92 % of control

Cc1ccc(NC(=S)N2CCC(CCCC3CCN(C(=S)Nc4ccc(C)cc4C)CC3)CC2)c(C)c1
inactive: [1] 98 % of control | [4] 107 % of control | [3] 97 % of control | [5] 95 % of control | [6] 95 % of control

c1ccc(-c2c[nH]c(-c3ccccc3)c2-c2ccccc2)cc1
inactive: dose: 75.0 mg/kg/injection, schedule: Q01DX001 (ip), vehicle: carboxymethylcellulose (CMC) 93 % of control | dose: 150.0 mg/kg/injection, schedule: Q01DX001 (ip), vehicle: carboxymethylcellulose (CMC) 93 % of control | dose: 300.0 mg/kg/injection, schedule: Q01DX001 (ip), vehicle: carboxymethylcellulose (CMC) 93 % of control

Cc1ccc(C)c(NC(=O)c2ccccc2Cl)c1
inactive: [4] 115 % of control | [3] 102 % of control | [5] 120 % of control | [6] 100 % of control | [7] 120 % of control | [8] 97 % of control

COC(=O)C(Br)C(Br)N1C(=O)c2ccccc2C1=O (stereo unspecified)
inactive: [4] 98 % of control | [3] 102 % of control | [5] 96 % of control | [6] 105 % of control | [7] 102 % of control | [8] 97 % of control

Cc1cc([N+](=O)[O-])ccc1NS(=O)(=O)c1ccccc1
inactive: [1] 92 % of control | [4] 95 % of control | [3] 102 % of control | [5] 95 % of control | [6] 97 % of control

CCCCC(CCC)(CCN)CCCC
inactive: dose: 1.0 mg/kg/injection, schedule: Q01DX009 (ip), vehicle: Klucel (hydroxypropylcellulose) (HPC) 100 % of control | dose: 2.0 mg/kg/injection, schedule: Q01DX009 (ip), vehicle: Klucel (hydroxypropylcellulose) (HPC) 100 % of control | dose: 2.0 mg/kg/injection, schedule: Q04DX003 (ip), vehicle: Klucel (hydroxypropylcellulose) (HPC) 98 % of control | dose: 4.0 mg/kg/injection, schedule: Q01DX009 (ip), vehicle: Klucel (hydroxypropylcellulose) (HPC) 101 % of control | dose: 4.0 mg/kg/injection, schedule: Q04DX003 (ip), vehicle: Klucel (hydroxypropylcellulose) (HPC) 98 % of control | dose: 8.0 mg/kg/injection, schedule: Q01DX009 (ip), vehicle: Klucel (hydroxypropylcellulose) (HPC) 100 % of control | dose: 8.0 mg/kg/injection, schedule: Q04DX003 (ip), vehicle: Klucel (hydroxypropylcellulose) (HPC) 93 % of control | dose: 16.0 mg/kg/injection, schedule: Q04DX003 (ip), vehicle: Klucel (hydroxypropylcellulose) (HPC) 96 % of control | dose: 25.0 mg/kg/injection, schedule: Q01DX001 (ip), vehicle: carboxymethylcellulose (CMC) 95 % of control | dose: 100.0 mg/kg/injection, schedule: Q01DX001 (ip), vehicle: carboxymethylcellulose (CMC) 93 % of control

S=P(S)(Oc1ccc(Cl)cc1Cl)Oc1ccc(Cl)cc1Cl.[Cd]
inactive: dose: 25.0 mg/kg/injection, schedule: Q04DX002 (ip), vehicle: saline with Tween-80 89 % of control | dose: 50.0 mg/kg/injection, schedule: Q04DX002 (ip), vehicle: saline with Tween-80 92 % of control | dose: 100.0 mg/kg/injection, schedule: Q04DX002 (ip), vehicle: saline with Tween-80 123 % of control

CC1(C)C2CCC1(C)C(N1C(c3ccccc3)C1c1ccccc1)C2 (stereo unspecified)
inactive: [4] 90 % of control | [5] 88 % of control | [7] 90 % of control

Cc1ccccc1CO
inactive: dose: 50.0 mg/kg/injection, schedule: Q01DX001 (ip), vehicle: saline 97 % of control | [9] 97 % of control | [10] 97 % of control | [11] 100 % of control

C/C=C(/Cl)C(=O)O
inactive: dose: 5.0 mg/kg/injection, schedule: Q01DX001 (ip), vehicle: saline 100 % of control | dose: 10.0 mg/kg/injection, schedule: Q01DX001 (ip), vehicle: saline 97 % of control | dose: 20.0 mg/kg/injection, schedule: Q01DX001 (ip), vehicle: saline 97 % of control | dose: 40.0 mg/kg/injection, schedule: Q01DX001 (ip), vehicle: saline 103 % of control | dose: 80.0 mg/kg/injection, schedule: Q01DX001 (ip), vehicle: saline 103 % of control

Clc1cc(Cl)c(/C=C/c2c(Cl)cc(Cl)cc2Cl)c(Cl)c1
inactive: [3] 98 % of control | [6] 93 % of control | [8] 95 % of control

CC(C)(OC(=O)C(NC=O)C(C)(C)S)OC(=O)C(NC=O)C(C)(C)S (stereo unspecified)
inactive: dose: 100.0 mg/kg/injection, schedule: Q04DX003 (ip), vehicle: saline with Tween-80 98 % of control | dose: 200.0 mg/kg/injection, schedule: Q04DX003 (ip), vehicle: saline with Tween-80 95 % of control | dose: 400.0 mg/kg/injection, schedule: Q04DX003 (ip), vehicle: saline with Tween-80 100 % of control

CC12CCC3c4ccc(O)cc4CCC3C1CCC2=O (stereo unspecified)
inactive: dose: 100.0 mg/kg/injection, schedule: Q01DX001 (sc), vehicle: steriod suspending solution 92 % of control | dose: 200.0 mg/kg/injection, schedule: Q01DX001 (sc), vehicle: steriod suspending solution 92 % of control | dose: 400.0 mg/kg/injection, schedule: Q01DX001 (sc), vehicle: steriod suspending solution 86 % of control

BrC1CCC(Br)C(Br)CCC1Br (stereo unspecified)
inactive: dose: 100.0 mg/kg/injection, schedule: Q01DX001 (ip), vehicle: Klucel (hydroxypropylcellulose) (HPC) 101 % of control | [4] 104 % of control | dose: 200.0 mg/kg/injection, schedule: Q01DX001 (ip), vehicle: Klucel (hydroxypropylcellulose) (HPC) 97 % of control | [5] 97 % of control | dose: 400.0 mg/kg/injection, schedule: Q01DX001 (ip), vehicle: Klucel (hydroxypropylcellulose) (HPC) 95 % of control | [7] 90 % of control

N#CCCCN1C(=O)c2ccccc2S1(=O)=O
inactive: dose: 44.0 mg/kg/injection, schedule: Q01DX Z (ip), vehicle: methylcellulose (MC) 98 % of control | dose: 66.0 mg/kg/injection, schedule: Q01DX Z (ip), vehicle: methylcellulose (MC) 120 % of control | dose: 100.0 mg/kg/injection, schedule: Q01DX Z (ip), vehicle: methylcellulose (MC) 98 % of control

CC1CC2(C)C(CC1=O)CC(C)C1C2CCC2(C)C1CCC2(C)O (stereo unspecified)
inactive: dose: 100.0 mg/kg/injection, schedule: Q01DX009 (ip), vehicle: saline with Tween-80 90 % of control | dose: 200.0 mg/kg/injection, schedule: Q01DX009 (ip), vehicle: saline with Tween-80 90 % of control

CC(c1ccccc1)S(=O)(=O)c1ccccc1 (stereo unspecified)
inactive: [9] 102 % of control | [2] 95 % of control | dose: 100.0 mg/kg/injection, schedule: Q04DX003 (ip), vehicle: saline 97 % of control | [10] 101 % of control | dose: 200.0 mg/kg/injection, schedule: Q01DX009 (ip), vehicle: saline 101 % of control | dose: 200.0 mg/kg/injection, schedule: Q04DX003 (ip), vehicle: saline 95 % of control | [11] 95 % of control | dose: 400.0 mg/kg/injection, schedule: Q01DX009 (ip), vehicle: saline 97 % of control | dose: 400.0 mg/kg/injection, schedule: Q04DX003 (ip), vehicle: saline 95 % of control
